Reference: patent publication US20080255224A1, “PHARM[…] OF PSORIASIS” (priority 2007, published 2008)

Key:
[1] = tested on: keratinocyte proliferation; conditions: in vitro; cited from earlier work
[2] = tested on: epidermal keratinocyte differentiation; conditions: cited from earlier work
[3] = tested on: psoriasis; assay: Oral nabilone in a patient suffering from psoriasis, inpatient, unblinded; assay type: in vivo, human
Experimental: A patient suffering from psoriasis was treated with oral nabilone on an inpatient, unblinded basis. The patient suffered from psoriasis which had not responded well to prior drug treatments. To assess whether nabilone was beneficial in alleviating symptoms, nabilone at a dose of 1 mg was added to all other anti-inflammatory and anti-psoriatic medications. The results were dramatic. The regimen administered was a 0.5 mg dosage twice daily for four days, and then 1 mg twice daily for five days and eventually 1 mg daily was administered to the patient. Itch which had been intolerable and incessant abolished with the 1st dose. By the 10th day of therapy the skin redness had disappeared.

[4] = prior use for nausea and vomiting of chemotherapy; cited from earlier work

SMILES: CCCn1c(C)c(C(=O)c2cccc3ccccc23)c2ccccc21 [JWH015]
- Inhibition of keratinocyte proliferation [1]: only partial inhibition

SMILES: CCCCCCC(C)(C)c1cc(O)c2c(c1)OC(C)(C)[C@@H]1CC=C(CO)C[C@@H]21 [HU210]
- Inhibition of keratinocyte proliferation [1]: concentration-dependent response

SMILES: CCCCC/C=C\C/C=C\C/C=C\C/C=C\CCCC(=O)NCCO [Anadamide]
- Effect on epidermal keratinocyte differentiation [2]: inhibits

SMILES: COc1ccc2c(c1)c(CC(=O)N1CCOCC1)c(C)n2C(=O)c1ccc(Cl)cc1 [BML 190]
- Inhibition of keratinocyte proliferation [1]: only partial inhibition

SMILES: CCCCCCC(C)(C)c1cc(O)c2c(c1)OC(C)(C)C1CCC(=O)CC21 (centres unmarked) [nabilone]
- Itch ([3]; oral nabilone added to all other anti-inflammatory and anti-psoriatic medications, with the 1st dose (0.5 mg)): abolished
- Skin redness ([3]; oral, by the 10th day of therapy (0.5 mg twice daily for four days, then 1 mg twice daily for five days, then 1 mg daily)): disappeared
- Immunosuppressive potential [4]: does not show immunosuppressive potential
- Tolerability [4]: well tolerated
